{"source": "patent US9399028B2", "about": "“Treatment of drug resistant cancer” (ROCKEFELLER UNIVERSITY (THE), priority 2012, dated 2016)", "key": {"[1]": {"system": "ApoE", "assay": "Gene expression analysis by qRT-PCR in melanoma cells", "format": "cell-based, human", "details": "48 hours; for ApoE transcript expression: MeWo, HT-144, WM-266-4 human melanoma lines", "procedure": "Total RNA was extracted from various cell lines using the miRvana kit (AM1560, Applied Biosystems, Austin, Tex.). The expression levels of mature miRNAs were quantified using the Taqman miRNA expression assay (4427975-0002228, Applied Biosystems). RNU44 was used as an endogenous control for normalization. For mRNA expression analyses, 600 ng of total RNA was reverse transcribed using the cDNA First-Strand Synthesis Kit (18080-051, Invitrogen), and roughly 200 ng of the resulting cDNA was then mixed with SYBR green PCR Master Mix (4309155, Applied Biosystems) and the appropriate primers. Each reaction was performed in quadruplicate, and mRNA expression was quantified by performing real-time PCR amplification using an ABI Prism 7900HT Real-Time PCR System (Applied Biosystems). GAPDH was used as an endogenous control for normalization. The following primers were used: […]\nRNA was extracted from whole cell lysates using the Total RNA Purification Kit (I 7200, Norgen, Thorold, Canada). 600 ng of total RNA was then reverse transcribed into cDNA using the cDNA First-Strand Synthesis Kit (18080-051, Invitrogen), and quantitative real-time PCR amplification was performed as previously described (Pencheva et al., 2012) using an ABI Prism 7900HT Real-Time PCR System (Applied Biosystems, Austin, Tex.). Each PCR reaction was carried out in quadruplicates. Gene expression was normalized to GAPDH, which was used as an endogenous control.\nFor every sample, 600 ng of RNA was reverse transcribed into cDNA using the cDNA First-Strand Synthesis kit (Invitrogen). Approximately 200 ng of cDNA was mixed with SYBR® green PCR Master Mix and the corresponding forward and reverse primers specific for detection of human ApoE. Each reaction was carried out in quadruplicates, and ApoE mRNA expression levels were measured by quantitative real-time PCR amplification using an ABI Prism 7900HT Real-Time PCR System (Applied Biosystems). The relative ApoE expression was determined using the ΔΔCt method. GAPDH was used as an endogenous control for normalization purposes."}, "[2]": {"system": "human melanoma cells and endothelial cells", "assay": "In vitro cell proliferation, viability and serum starvation survival", "format": "cell-based", "details": "for cell proliferation or cell viability rates: MeWo, HT-144, SK-Mel-334.2 cells, 1 μM, 5 days", "procedure": "To determine the effects of miR-199a or miR-1908 over-expression and combinatorial LNA-induced miRNA inhibition on cell proliferation, 2.5×10^4 cells were seeded in triplicate in 6-well plates, and viable cells were counted after 5 days. […] Viable cells were counted after 8, 24, 48, 72, and 120 hours.\nThe number of viable cells was counter after 8, 16, and 24 hours.\nTo determine the effects of GW3965, T0901317, and Bexarotene on in vitro cell growth, 2.5×10^4 melanoma cells were seeded in triplicate in 6-well plates and cultured in the presence of DMSO, GW3965, T0901317, or Bexarotene at 1 μM each. After 5 days, the number of viable and dead cells was counted using the trypan blue dye (72-57-1, Sigma-Aldrich), which selectively labels dead cells."}, "[3]": {"details": "MeWo-LM2 or endothelial cells, ApoE 100 μM"}}, "note": "Entries after “also recorded” stand apart in the source; their conditions may differ. Counter-ions that a name gives are not always drawn."}
{"molecule": "O=C(O)Cc1cccc(OCCCN(Cc2cccc(C(F)(F)F)c2Cl)CC(c2ccccc2)c2ccccc2)c1", "note": "[GW3965 2, 3-[3-[N-(2-Chloro-3-trifluoromethylbenzyl)-(2,2-diphenylethyl)amino]propyloxy]phenylacetic acid hydrochloride]", "values": [{"measurement": "ApoE transcript expression", "setting": "[1]", "result": "potently induce"}, {"measurement": "expression of ApoE", "setting": "[1]; parental MeWo cells", "result": "increased"}, {"measurement": "expression of DNAJA4", "setting": "[1]; parental MeWo cells", "result": "increased"}, {"measurement": "cell proliferation or cell viability rates", "setting": "[2]", "result": "did not affect"}]}
{"molecule": "CC(CCOc1cccc(CC(=O)O)c1)N(Cc1cccc(C(F)(F)F)c1Cl)CC(c1ccccc1)c1ccccc1", "note": "(stereo not drawn) [SB742881 25]", "values": [{"measurement": "ApoE expression induction", "setting": "[1]; MeWo cells, 500 nM, 1 μM or 2 μM", "result": "varied degrees of ApoE expression induction; also recorded: potently induce"}]}
{"molecule": "O=S(=O)(c1ccccc1)N(CC(F)(F)F)c1ccc(C(O)(C(F)(F)F)C(F)(F)F)cc1", "note": "[T0901317 1]", "values": [{"measurement": "ApoE transcript expression", "setting": "[1]", "result": "potently induce"}, {"measurement": "cell proliferation or cell viability rates", "setting": "[2]", "result": "did not affect"}]}
{"molecule": "recombinant human ApoE3: recombinant human ApoE3 (4696, BioVision)", "values": [{"measurement": "melanoma cell or endothelial cell in vitro proliferation", "setting": "[2]; [3]", "result": "did not affect"}, {"measurement": "survival in serum starvation conditions", "setting": "[2]; [3]", "result": "did not affect"}]}
